From publication PMC9007951, “Systematically evaluating DOTATATE and FDG as PET immuno-imaging tracers of cardiovascular inflammation” (Scientific Reports, 2022) come the findings set out here.

Data set [1] in a line: In vivo PET/CT of cardiac inflammation in infarcted mice. Particulars: female, mouse, heart, iv, 5.55 MBq, total radioactivity, healthy C57Bl/6 mice, tracer circulated 60 min, median, N = 4, read-out: SUVmax heart of control animals. As for the experimental part:
Myocardial infarction in mice was induced by permanent ligation of the left anterior descending (LAD) coronary artery of female C57Bl/6 mice (N = 18). Briefly, animals were anesthetized with xylazine (10 mg/kg) and ketamine (100 mg/kg) and intubated using an endotracheal intubation kit from Braintree Scientific (Braintree, MA). Left-sided thoracotomy and pericardial incision were performed. A 7-0 Silk suture was used to occlude the LAD. Incisions were closed with a 5-0 Silk suture. Infarcted animals were treated with 0.1 mg/kg of buprenorphine every 12 h and used 3 days after the surgery.
(§1) For the PET/CT experiments, mice were fasted for 12 h before radiotracer injection and anesthetized with xylazine (10 mg/kg) and ketamine (100 mg/kg) through intraperitoneal injection prior to radiotracer administration. Subsequently they were injected via the lateral tail vein with approximately 22.2 MBq of [^18F]F-FDG or 5.55 MBq of [^64Cu]Cu-DOTATATE. Tracers were allowed to circulate for 60 min. Immediately before imaging, mice were placed under 1% isoflurane (BaxterHealthcare, Deerfield, IL), and subsequently imaged on a high resolution (700 µm) Mediso nanoScan PET/CT scanner (Mediso, Budapest, Hungary). CT scan was acquired at 50 kVp and 300 ms exposure per projection. eXIA160 (Binitio, Ontario, Canada) was used as a contrast agent to improve imaging of the vasculature by intravenous administration of 100 μl per mouse 5 min prior to CT acquisition. PET acquisition time was 40 min. Reconstruction was performed using TeraTomo 3D reconstruction engine, for 8 iterations and 6 subsets per iteration for both tracers. The voxel size was isotropic at 0.3 mm. Immediately after the PET/CT scan, animals were euthanized for ex vivo assays.
(§2) Using OsiriX v5.6 software (OsiriX Foundation, Geneva, Switzerland), regions of interest (ROIs) were drawn to determine organ radioactivity concentration. In mice, for healthy and infarcted myocardium, ROIs were traced manually in the apex of the heart in the axial view. For remote myocardium, analysis was performed in myocardium 180° from the infarcted zone. In the mice aorta, sequential ROIs were drawn in the ascending aorta based on consecutive tomographic (CT) slices beginning from the root up to the brachiocephalic branch, merging point with the aortic arch. Voxel counts were converted to maximum standardized uptake values (SUVmax). In rabbits, PET images were fused with time-of-flight bright blood MRI angiography and ROIs were manually drawn on the infrarenal abdominal aorta in TOF images. The slice-by-slice maximum standard uptake values (SUVmax) were averaged across the whole aorta. […]

Data set [2] can be described thus: In vivo PET/CT of vascular inflammation in atherosclerotic mice. Particulars: female, mouse, ascending aorta, iv, 5.55 MBq, total radioactivity, tracer circulated 60 min, median, N = 4, read-out: SUVmax ascending aorta. As for the experimental part: Animals were housed under a constant room temperature at 25 ± 2 °C and 50 ± 5% humidity with a 12-h daylight period and 12-h darkness period, with free access to water. For the mouse atherosclerosis model, 8-weeks old female Apoe^−/− mice (N = 51) were purchased from Jackson Laboratories (Bar Harbor, ME) and, after a 48 h acclimatization period, were fed a Western Diet (42% Kcal from fat TD88137, Envigo, Huntingdon, UK) for 12 weeks. 16–20 weeks old female C57Bl/6 controls (N = 67) were kept on regular chow diet. The myocardial infarction group consisted 16–20 weeks old female C57Bl/6 mice (N = 18) purchased from Jackson Laboratories and subjected to ligation of the left anterior descending artery, as previously described.
as §1, §2

SMILES strings stand for the structures.

As to `C[C@@H](O)[C@H](NC(=O)[C@@H]1CSSC[C@H](NC(=O)[C@@H](Cc2ccccc2)NC(=O)CN2CCN(CC(=O)O)CCN(CC(=O)O)CCN(CC(=O)O)CC2)C(=O)N[C@@H](Cc2ccc(O)cc2)C(=O)N[C@H](Cc2c[nH]c3ccccc23)C(=O)N[C@@H](CCCCN)C(=O)N[C@@H]([C@@H](C)O)C(=O)N1)C(=O)O` [[^64Cu]Cu-DOTATATE, metal not drawn], the SUV at 1 h in data set [1] is 0.6 SUV; in data set [2] (Apoe^−/− mice 12 weeks on Western Diet), 1.1 SUV; in data set [2] (healthy C57Bl/6 control mice) it was 0.5 SUV.
